According to ChEMBL document CHEMBL1201862, “PubChem BioAssay data set” (2004):
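Protocol summary: plate cells (96-well), add compound at 5 concentrations, incubate 48 h, interpolate endpoints linearly. GI50 marks 50% less growth.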 Activity calls are given as the source filed them. No stated cut-off is given here; in the data, active = GI50 up to about 1.1 µM and inactive = higher.

Experiments:
Test in all cases: NCI-60 cell line screen, 48 h
[1] = test system: KM12
[2] = test system: MOLT-4
[3] = test system: OVCAR-8
[4] = test system: XF498
[5] = test system: SNB-78
[6] = test system: OVCAR-3
[7] = test system: NCI-H23
[8] = test system: IGROV-1
[9] = test system: HT-29
[10] = test system: DLD-1
[11] = test system: TK-10
[12] = test system: EKVX
[13] = test system: SF-539
[14] = test system: NCI-H522
[15] = test system: SK-MEL-28
[16] = test system: SR
[17] = test system: SNB-75
[18] = test system: RPMI-8226
[19] = test system: SF-268
[20] = test system: UACC-62
[21] = test system: M19-MEL
[22] = test system: A549
[23] = test system: Malme-3M
[24] = test system: HCT-116
[25] = test system: HOP-92
[26] = test system: U-251
[27] = test system: DMS-273
[28] = test system: NCI-H460
[29] = test system: SW-620
[30] = test system: M14
[31] = test system: SNB-19
[32] = test system: UO-31
[33] = test system: SF-295
[34] = test system: RXF 393
[35] = test system: HCT-15
[36] = test system: LOX IMVI
[37] = test system: HOP-18
[38] = test system: SK-MEL-5
[39] = test system: CCRF-CEM
[40] = test system: OVCAR-5
[41] = test system: NCI-H226
[42] = test system: SN12C
[43] = test system: KM-20L2
[44] = test system: DMS-114
[45] = test system: UACC-257
[46] = test system: HL-60
[47] = test system: COLO 205
[48] = test system: LXFL 529
[49] = test system: 786-0
[50] = test system: HCC 2998
[51] = test system: SK-OV-3
[52] = test system: SK-MEL-2
[53] = test system: ACHN
[54] = test system: K562

Which GI50 [1] does the source give for `O=C(O)c1c(-c2cccc3ccccc23)sc(-c2cccc3ccccc23)c1C(=O)O` here?
Its GI50 is 36.6 µM (inactive).

What about the GI50 [2] of the same molecule?
Its GI50 is 27.2 µM (inactive).

And the GI50 [3]?
Its GI50 is > 100 µM (inactive).

What about the GI50 [4] of the same molecule?
Its GI50 is 18.2 µM (inactive).

What about the GI50 [5] of the same molecule?
The GI50 was > 100 µM (inactive).

And the GI50 [6]?
Its GI50 is 63.8 µM (inactive).

And the GI50 [7]?
The GI50 was > 100 µM (inactive).

And the GI50 [8]?
The GI50 was > 100 µM (inactive).

What about the GI50 [9] of the same molecule?
Its GI50 is > 100 µM (inactive).

What about the GI50 [10] of the same molecule?
Its GI50 is > 100 µM (inactive).

What about the GI50 [11] of the same molecule?
The GI50 was > 100 µM (inactive).

And the GI50 [12]?
Its GI50 is 90.8 µM (inactive).

And the GI50 [13]?
Its GI50 is > 100 µM (inactive).

And the GI50 [14]?
Its GI50 is 74.8 µM (inactive).

And the GI50 [15]?
The GI50 was > 100 µM (inactive).

What about the GI50 [16] of the same molecule?
The GI50 was 47.9 µM (inactive).

And the GI50 [17]?
Its GI50 is > 100 µM (inactive).

What about the GI50 [18] of the same molecule?
The GI50 was 58.1 µM (inactive).

What about the GI50 [19] of the same molecule?
The GI50 was > 100 µM (inactive).

What about the GI50 [20] of the same molecule?
The GI50 was 46.1 µM (inactive).

And the GI50 [21]?
The GI50 was > 100 µM (inactive).

And the GI50 [22]?
Its GI50 is > 100 µM (inactive).

What about the GI50 [23] of the same molecule?
Its GI50 is > 100 µM (inactive).

And the GI50 [24]?
The GI50 was > 100 µM (inactive).

And the GI50 [25]?
The GI50 was > 100 µM (inactive).

What about the GI50 [26] of the same molecule?
Its GI50 is > 100 µM (inactive).

What about the GI50 [27] of the same molecule?
Its GI50 is > 100 µM (inactive).

And the GI50 [28]?
Its GI50 is > 100 µM (inactive).

What about the GI50 [29] of the same molecule?
The GI50 was > 100 µM (inactive).

What about the GI50 [30] of the same molecule?
The GI50 was > 100 µM (inactive).

What about the GI50 [31] of the same molecule?
Its GI50 is > 100 µM (inactive).

And the GI50 [32]?
The GI50 was 88.3 µM (inactive).

And the GI50 [33]?
The GI50 was > 100 µM (inactive).

And the GI50 [34]?
The GI50 was > 100 µM (inactive).

What about the GI50 [35] of the same molecule?
Its GI50 is over 100 µM.

What about the GI50 [36] of the same molecule?
Its GI50 is > 100 µM (inactive).

What about the GI50 [37] of the same molecule?
Its GI50 is 96.2 µM (inactive).

And the GI50 [38]?
The GI50 was > 100 µM (inactive).

And the GI50 [39]?
Its GI50 is 22.1 µM (inactive).

And the GI50 [40]?
The GI50 was > 100 µM (inactive).

And the GI50 [41]?
Its GI50 is > 100 µM (inactive).

What about the GI50 [42] of the same molecule?
Its GI50 is > 100 µM (inactive).

And the GI50 [43]?
Its GI50 is 50 µM (inactive).

What about the GI50 [44] of the same molecule?
Its GI50 is > 100 µM (inactive).

And the GI50 [45]?
Its GI50 is > 100 µM (inactive).

And the GI50 [46]?
The GI50 was > 100 µM (inactive).

And the GI50 [47]?
The GI50 was > 100 µM (inactive).

And the GI50 [48]?
Its GI50 is > 100 µM (inactive).

And the GI50 [49]?
The GI50 was > 100 µM (inactive).

And the GI50 [50]?
Its GI50 is > 100 µM (inactive).

And the GI50 [51]?
Its GI50 is > 100 µM (inactive).

And the GI50 [52]?
Its GI50 is 35.9 µM (inactive).

What about the GI50 [53] of the same molecule?
Its GI50 is > 100 µM (inactive).

And the GI50 [54]?
Its GI50 is 90.8 µM (inactive).
